Measurements: article PMC11369174, “Proteome-scale characterisation of motif-based interactome rewiring by disease mutations” (Molecular Systems Biology, 2024)

Columns and labels:
CASK kinase domain [1] = target: T1, CASK kinase domain (Homo sapiens, UniProt O14936); test: GenVar_HD2 ProP-PD phage selection, CASK kinase domain; conditions: bait CASK kinase domain; from NGS counts of overlapping wild-type/mutant library peptide pairs; positive = mutation enhances, negative = disrupts binding
T1 sequence (O14936 1-340): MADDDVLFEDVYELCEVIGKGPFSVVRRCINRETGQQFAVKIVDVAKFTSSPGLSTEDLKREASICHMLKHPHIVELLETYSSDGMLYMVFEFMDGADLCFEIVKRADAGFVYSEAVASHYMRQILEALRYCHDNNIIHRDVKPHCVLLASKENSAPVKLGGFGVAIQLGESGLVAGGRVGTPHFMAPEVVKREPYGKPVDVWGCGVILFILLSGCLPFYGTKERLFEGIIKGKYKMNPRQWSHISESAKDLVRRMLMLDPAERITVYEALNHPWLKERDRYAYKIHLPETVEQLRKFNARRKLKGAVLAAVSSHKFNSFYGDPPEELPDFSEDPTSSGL
Protocol: (§1) Phage display screens were performed according to previous reports (Benz et al, [2022]; Ali et al, [2020]) and for four consecutive selection rounds with five to six replicates per bait protein domain against the […] library.
(§2) On the first day, both bait (15 µg in 100 µL PBS) and control protein domains (GST and MBP; 10 µg in 100 µL PBS) were immobilised on a 96-well MaxiSorb plate (Nunc) overnight in the cold room while shaking. Additionally, a 10 mL culture of Omnimax E. coli bacteria supplemented with 10 µg/mL tetracycline was incubated overnight at 37 °C at 200 rpm.
(§3) First, protein solutions were removed from both control and bait protein domain plates and the wells were blocked with 0.5% BSA in PBS (200 µL/well) for 1 h in the cold room while shaking. After that, three Omnimax E. coli cultures were started supplemented with either 30 µg/mL kanamycin, 100 µg/mL carbenicillin and 10 µg/mL tetracycline and incubated at 37 °C and 200 rpm. The two first cultures served as a means to check for helper phage contamination (kanamycin) and phages with library phagemid contamination (carbenicillin) of the culture used for elution of the phages during selections. The tetracycline Omnimax E. coli culture was grown until OD at 600 nm reached 0.6–0.8. […]

G3BP1 NTF2 [2] = target: T2, G3BP1 NTF2 (Homo sapiens, UniProt Q13283); test: GenVar_HD2 ProP-PD phage selection, G3BP1 NTF2; conditions: bait G3BP1 NTF2; from NGS counts of overlapping wild-type/mutant library peptide pairs; positive = mutation enhances, negative = disrupts binding
T2 sequence (Q13283 1-139): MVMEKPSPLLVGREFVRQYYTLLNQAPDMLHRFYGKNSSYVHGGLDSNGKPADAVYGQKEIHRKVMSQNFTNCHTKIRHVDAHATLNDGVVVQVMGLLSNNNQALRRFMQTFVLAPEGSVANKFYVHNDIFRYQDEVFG
Protocol: as §1, §2, §3

GABARAPL1 ATG8 [3] = target: T3, GABARAPL1 ATG8 (Homo sapiens, UniProt Q9H0R8); test: FP displacement assay, GABARAPL1 ATG8; format: binding; conditions: read-out: KD-values [µM] + SEM
T3 sequence (Q9H0R8 2-115): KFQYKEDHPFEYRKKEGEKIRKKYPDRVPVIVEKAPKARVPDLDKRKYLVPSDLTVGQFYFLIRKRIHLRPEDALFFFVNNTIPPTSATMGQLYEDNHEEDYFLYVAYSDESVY
Protocol: (§4) FP experiments were performed, as previously described (Kliche et al, [2021], [2023]), on an iD5 plate reader (Molecular devices) using black half-area non-binding 96-well plates (Corning). In order to calculate the FP signal in millipolarisation (mP), the FITC-labelled peptides were excited at 485 nm and the emitted light was measured at 535 nm in two different angles. For saturation experiments, a dilution series of the respective protein domains was generated (25 µL) and 10 nM fluorescein isothiocyanate (FITC)-labelled peptide (diluted in 50 mM sodium phosphate buffer pH 7.4, 0.05% Tween) were added in an end volume of 50 µL. […] For fitting the data, the buffer-corrected reduced values were plotted in GraphPad PRISM against the respective protein concentration and the KD-values were obtained by fitting against the quadratic equation (Gianni et al, [2005]).
(§5) The buffer-corrected reduced values were subsequently plotted against the logarithmic unlabelled peptide concentration to derive the IC50 values by using the sigmoidal dose-response (x is logarithmic) fit in GraphPad PRISM and calculate the KD values as described previously (Nikolovska-Coleska et al, [2004]).

MAP1LC3B ATG8 [4] = target: T4, MAP1LC3B ATG8 (Homo sapiens, UniProt Q9GZQ8); test: FP displacement assay, MAP1LC3B ATG8; format: binding; conditions: for Kd: read-out: KD-values [µM] + SEM
Protocol: (§6) FP experiments were performed, as previously described (Kliche et al, [2021], [2023]), on an iD5 plate reader (Molecular devices) using black half-area non-binding 96-well plates (Corning). In order to calculate the FP signal in millipolarisation (mP), the FITC-labelled peptides were excited at 485 nm and the emitted light was measured at 535 nm in two different angles. For saturation experiments, a dilution series of the respective protein domains was generated (25 µL) and 10 nM fluorescein isothiocyanate (FITC)-labelled peptide (diluted in 50 mM sodium phosphate buffer pH 7.4, 0.05% Tween) were added in an end volume of 50 µL. A control experiment titrating GST was performed for the binding of the NEDD4 WW2 domain, since the GST-tagged construct was used for affinity measurements. For fitting the data, the buffer-corrected reduced values were plotted in GraphPad PRISM against the respective protein concentration and the KD-values were obtained by fitting against the quadratic equation (Gianni et al, [2005]).
as §5

GABARAPL1 ATG8 [5] = target: T3, GABARAPL1 ATG8; test: GenVar_HD2 ProP-PD phage selection, GABARAPL1 ATG8; conditions: bait GABARAPL1 ATG8; from NGS counts of overlapping wild-type/mutant library peptide pairs; positive = mutation enhances, negative = disrupts binding
Protocol: as §1, §2, §3

MAP1LC3B ATG8 [6] = target: T4, MAP1LC3B ATG8; test: GenVar_HD2 ProP-PD phage selection, MAP1LC3B ATG8; conditions: bait MAP1LC3B ATG8; from NGS counts of overlapping wild-type/mutant library peptide pairs; positive = mutation enhances, negative = disrupts binding
Protocol: as §1, §2
First, protein solutions were removed from both control and bait protein domain plates and the wells were blocked with 0.5% BSA in PBS (200 µL/well) for 1 h in the cold room while shaking. After that, three Omnimax E. coli cultures were started supplemented with either 30 µg/mL kanamycin, 100 µg/mL carbenicillin and 10 µg/mL tetracycline and incubated at 37 °C and 200 rpm. The two first cultures served as a means to check for helper phage contamination (kanamycin) and phages with library phagemid contamination (carbenicillin) of the culture used for elution of the phages during selections. The tetracycline Omnimax E. coli culture was grown until OD at 600 nm reached 0.6–0.8.
Naïve phage libraries were precipitated (10 µL/well of bait protein domain) by diluting the library tenfold with PBS, adding one-fourth of 20% […] and 400 mM NaCl and incubating the mixture for 15 min on ice. Subsequently, phages were spun down for 15 min at 13,000 × g and resuspended in 0.5% BSA and 0.05% Tween-20 in PBS (100 µL/well). Control domain plates were washed four times with 200 µL 0.05% Tween-20 in PBS, 100 µL of the naïve phage library (10^11 phages/mL) were added to every well and the plates incubated for 1 h in the cold room while shaking. Next, protein bait domain plates were washed four times with 0.05% Tween-20 in PBS and the phage solution from the control protein plate was transferred to the respective wells on the protein bait domain plate. […]

G3BP2 NTF2 [7] = target: T5, G3BP2 NTF2 (Homo sapiens, UniProt Q9UN86); test: FP displacement assay, G3BP2 NTF2; conditions: FP displacement of FITC-N_SARS-CoV-2 (10 nM) complexed with domain (1-2x KD), 50 mM sodium phosphate pH 7.4, KD from IC50, technical triplets, n.b. = not binding within concentration range used
T5 sequence (Q9UN86 1-139): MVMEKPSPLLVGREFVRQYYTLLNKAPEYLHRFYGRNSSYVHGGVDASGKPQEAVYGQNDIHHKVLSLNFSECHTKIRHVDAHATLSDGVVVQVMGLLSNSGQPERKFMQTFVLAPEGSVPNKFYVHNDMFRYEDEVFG

CLTC NTD [8] = target: T6, CLTC NTD (Homo sapiens, UniProt Q00610); test: GenVar_HD2 ProP-PD phage selection, CLTC NTD; conditions: bait CLTC NTD; from NGS counts of overlapping wild-type/mutant library peptide pairs; positive = mutation enhances, negative = disrupts binding
T6 sequence (Q00610 1-364): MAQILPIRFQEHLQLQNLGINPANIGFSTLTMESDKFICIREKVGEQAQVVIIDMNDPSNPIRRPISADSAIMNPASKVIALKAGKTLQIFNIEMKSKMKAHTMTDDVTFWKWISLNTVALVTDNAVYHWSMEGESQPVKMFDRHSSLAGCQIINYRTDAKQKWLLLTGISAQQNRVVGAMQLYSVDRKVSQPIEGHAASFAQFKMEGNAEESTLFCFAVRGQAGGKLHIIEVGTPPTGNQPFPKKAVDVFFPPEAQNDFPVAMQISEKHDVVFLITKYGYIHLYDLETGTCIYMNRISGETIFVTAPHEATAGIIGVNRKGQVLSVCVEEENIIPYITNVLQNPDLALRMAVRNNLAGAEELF
Protocol: as §1, §2, §3

G3BP2 NTF2 [9] = target: T5, G3BP2 NTF2; test: GenVar_HD2 ProP-PD phage selection, G3BP2 NTF2; conditions: bait G3BP2 NTF2; from NGS counts of overlapping wild-type/mutant library peptide pairs; positive = mutation enhances, negative = disrupts binding
Protocol: as §1, §2, §3

KPNA4 ARM major = KPNA4 ARM major (Homo sapiens, UniProt O00629); test: FP displacement assay, KPNA4 ARM major pocket; format: binding
KPNA4 ARM major, sequence (O00629 68-487): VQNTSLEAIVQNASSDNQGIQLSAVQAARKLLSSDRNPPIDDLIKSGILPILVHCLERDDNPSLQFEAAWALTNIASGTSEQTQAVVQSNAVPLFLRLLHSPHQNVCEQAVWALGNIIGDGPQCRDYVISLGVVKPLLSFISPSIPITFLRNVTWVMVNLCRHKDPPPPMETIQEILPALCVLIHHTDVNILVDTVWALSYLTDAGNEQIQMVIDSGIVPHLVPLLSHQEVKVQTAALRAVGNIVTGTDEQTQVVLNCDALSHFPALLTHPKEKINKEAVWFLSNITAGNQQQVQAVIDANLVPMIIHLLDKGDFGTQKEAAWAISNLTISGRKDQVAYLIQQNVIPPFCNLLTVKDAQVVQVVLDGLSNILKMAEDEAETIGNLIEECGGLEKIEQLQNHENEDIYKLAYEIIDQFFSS
Protocol: as §6, §5

KPNA4 ARM minor = KPNA4 ARM minor (Homo sapiens, UniProt O00629); test: FP displacement assay, KPNA4 ARM minor pocket; format: binding
KPNA4 ARM minor, sequence (O00629 68-487): as above
Protocol: as §6, §5

KPNA4 ARM = test: GenVar_HD2 ProP-PD phage selection, KPNA4 ARM; format: binding, human; conditions: bait KPNA4 ARM; from NGS counts of overlapping wild-type/mutant library peptide pairs; positive = mutation enhances, negative = disrupts binding
NEDD4 WW2 [10] = target: T7, NEDD4 WW2 (Homo sapiens, UniProt P46934); test: FP displacement assay, NEDD4 WW2; format: binding; conditions: read-out: KD-values [µM] + SEM
T7 sequence (P46934 765-803 limits assumed): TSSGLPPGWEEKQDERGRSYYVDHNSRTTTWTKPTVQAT
Protocol: For saturation experiments, a dilution series of the respective protein domains was generated (25 µL) and 10 nM fluorescein isothiocyanate (FITC)-labelled peptide (diluted in 50 mM sodium phosphate buffer pH 7.4, 0.05% Tween) were added in an end volume of 50 µL. A control experiment titrating GST was performed for the binding of the NEDD4 WW2 domain, since the GST-tagged construct was used for affinity measurements.
If the raw values indicated a FITC-contamination of the unlabelled peptide, the data was excluded and a new batch of peptide was ordered for remeasuring the affinity.

NEDD4 WW2 [11] = target: T7, NEDD4 WW2; test: GenVar_HD2 ProP-PD phage selection, NEDD4 WW2; conditions: bait NEDD4 WW2; from NGS counts of overlapping wild-type/mutant library peptide pairs; positive = mutation enhances, negative = disrupts binding
Protocol: as §1, §2, §3

CLTC NTD [12] = target: T6, CLTC NTD; test: FP displacement assay, CLTC NTD; format: binding; conditions: read-out: KD-values [µM] + SEM
Protocol: as §4, §5

USP7 MATH/TRAF = USP7 MATH/TRAF (Homo sapiens, UniProt Q93009); test: FP displacement assay, USP7 MATH/TRAF; format: binding; conditions: read-out: KD-values [µM] + SEM
USP7 MATH/TRAF, sequence (Q93009 53-206): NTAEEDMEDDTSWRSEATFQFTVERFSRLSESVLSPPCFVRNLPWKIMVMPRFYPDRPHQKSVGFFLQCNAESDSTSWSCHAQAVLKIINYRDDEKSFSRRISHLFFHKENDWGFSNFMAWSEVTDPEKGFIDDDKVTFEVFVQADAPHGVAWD
Protocol: as §4, §5

CASK kinase domain [13] = target: T1, CASK kinase domain; test: FP displacement assay, CASK kinase domain; conditions: FP displacement of FITC-PER2 (10 nM) complexed with domain (1-2x KD), 50 mM sodium phosphate pH 7.4, 100 mM NaCl, KD from IC50, technical triplets, n.b. = not binding within concentration range used
Protocol: as §6, §5

G3BP1 NTF2 [14] = target: T2, G3BP1 NTF2; conditions: FP displacement of FITC-N_SARS-CoV-2 (10 nM) complexed with domain (1-2x KD), 50 mM sodium phosphate pH 7.4, KD from IC50, technical triplets, n.b. = not binding within concentration range used

Molecule: CSCC[C@H](NC(C)=O)C(=O)N[C@@H](CO)C(=O)N[C@@H](CC(=O)O)C(=O)N[C@@H](CC(C)C)C(=O)N[C@@H](Cc1c[nH]c2ccccc12)C(=O)N[C@H](C(=O)N1CCC[C@H]1C(=O)N[C@@H](CC(N)=O)C(=O)N[C@@H](CO)C(=O)N[C@@H](C)C(=O)N[C@@H](CO)C(=O)NCC(=O)N[C@@H](CCC(N)=O)C(=O)N[C@@H](CC(=O)O)C(=O)N1CCC[C@H]1C(=O)NCC(N)=O)C(C)C [FANCA_1-16 S4L]
- Mutation enrichment score (CASK kinase domain [1]): 6

Molecule: CC(=O)N[C@@H](CCC(=O)O)C(=O)N[C@@H](Cc1ccccc1)C(=O)N1CCC[C@H]1C(=O)N[C@H](C(=O)N1CCC[C@H]1C(=O)N[C@@H](Cc1ccccc1)C(=O)N[C@@H](Cc1ccccc1)C(=O)NCC(=O)N[C@@H](CO)C(=O)N[C@@H](CC(N)=O)C(=O)N[C@@H](CC(=O)O)C(=O)N[C@@H](Cc1ccc(O)cc1)C(=O)N[C@@H](CC(C)C)C(=O)N[C@@H](Cc1c[nH]c2ccccc12)C(=O)N[C@H](C(=O)N[C@@H](Cc1c[nH]cn1)C(N)=O)[C@@H](C)O)C(C)C [NSD1_1793-1808 L1797P]
- Mutation enrichment score (G3BP1 NTF2 [2]): −7.4

Molecule: Ac-DKDEWQFLDQNEDAFE-NH2 [BUB1_486-501 S492F]
- Kd (GABARAPL1 ATG8 [3]): < 0.3 µM
- increase in affinity, mutant vs wild-type peptide (MAP1LC3B ATG8 [4]; from FP displacement KD values, MAP1LC3B ATG8): four-fold increase in affinity
- Kd (MAP1LC3B ATG8 [4]): 1.6 ± 0.1 µM
- Mutation enrichment score (GABARAPL1 ATG8 [5]): 16
- Mutation enrichment score (MAP1LC3B ATG8 [6]): 12

Molecule: Ac-DKDEWQSLDQNEDAFE-NH2 [BUB1_486-501 wild-type]
- Kd (GABARAPL1 ATG8 [3]): 5.5 ± 0.7 µM
- Kd (MAP1LC3B ATG8 [4]): 7 ± 1 µM

Molecule: Ac-DLLTCGQAQMNFPY-NH2 [BCL11A_44-56 wild-type]
- KD-values [µM] + SEM (G3BP2 NTF2 [7]): n.b.

Molecule: Ac-DLLTFGQAQMNFPY-NH2 [BCL11A_44-56 C48F]
- Mutation enrichment score (CLTC NTD [8]): 12
- Mutation enrichment score (G3BP2 NTF2 [9]): 10

Molecule: Ac-PELWVAHRTAQHLSAT-NH2 [ZNF526_152-167 L160T]
- KD-values [µM] + SEM (KPNA4 ARM major; major pocket, FP displacement of FITC-MYC (10 nM) complexed with domain (1-2x KD), 50 mM sodium phosphate pH 7.4, KD from IC50, ± SEM, n.b. = not binding within concentration range used): n.b.
- Kd (KPNA4 ARM minor; read-out: KD-values [µM] + SEM): 395 ± 10 µM
- Mutation enrichment score (KPNA4 ARM): −6.4

Molecule: Ac-PIPGTPPRNYDSLRLQ-NH2 [SCNN1B_611-626 P618R]
- Kd (NEDD4 WW2 [10]): 603 ± 73 µM
- Mutation enrichment score (NEDD4 WW2 [11]): −16

Molecule: Ac-PIPGTRPPNYDSLRLQ-NH2 [SCNN1B_611-626 P616R]
- Kd (NEDD4 WW2 [10]): 80 ± 7 µM
- Mutation enrichment score (NEDD4 WW2 [11]): −12

Molecule: Ac-QQSYLDFGIHSGATTT-NH2 [CTNNB1_27-42 S33F]
- Mutation enrichment score (G3BP1 NTF2 [2]): 9

Molecule: Ac-SGNLIDLCGNQGLPY-NH2 [MITF_258-271 Y265C]
- Kd (CLTC NTD [12]): 206 ± 13 µM
- Mutation enrichment score (CLTC NTD [8]): −9.8

Molecule: Ac-SGNLIDLYGNQGLPY-NH2 [MITF_258-271 wild-type]
- Kd (CLTC NTD [12]): 191 ± 27 µM

Molecule: Ac-YISSSSTSTMPNSSQSS-NH2 [CHK2_38-53 wild-type]
- Kd (USP7 MATH/TRAF): 3.1 ± 0.2 µM

Molecule: Ac-YLLDGPPNPERAKLSS-NH2 [CREBBP_5-19 K13E]
- Kd (KPNA4 ARM major; read-out: KD-values [µM] + SEM): 860 ± 20 µM
- KD-values [µM] + SEM (KPNA4 ARM minor; minor pocket, FP displacement of FITC-NCOR2 (10 nM) complexed with domain (1-2x KD), 50 mM sodium phosphate pH 7.4, KD from IC50, technical triplets, ± SEM, n.b. = not binding within concentration range used): n.b.
- Mutation enrichment score (KPNA4 ARM): −6

Molecule: Ac-YSGDTSPWHLSNVSST-NH2 [MAPT_717-731 R723W]
- Mutation enrichment score (CASK kinase domain [1]): 12

Molecule: H3COC-MSD(S/L)WVPNSASGQDPG-NH2 [FANCA_1-16 wild-type, wild-type FANCA peptide, residues 1-16]
- KD-values [µM] + SEM (CASK kinase domain [13]): n.b.

Molecule: H3COC-QQSYLD(S/F)GIHSGATTT-NH2 [CTNNB1_27-42 wild-type]
- KD-values [µM] + SEM (G3BP1 NTF2 [14]): no binding and n.b.

Molecule: H3COC-YSGDTSP(R/W)HLSNVSST-NH2 [MAPT_717-731 wild-type, wild-type MAPT peptide, residues 717-731]
- KD-values [µM] + SEM (CASK kinase domain [13]): no binding and n.b.
